According to patent US20250042895A1, “INHIBITORS OF ULK1 AND METHODS OF USE” (H. LEE MOFFITT CANCER CENTER AND RESEARCH INSTITUTE, INC., priority 2021, published 2025):

Experiments:
ULK1-nanoluc = target: T1, ULK1-nanoluc (Homo sapiens, UniProt O75385); experiment: NanoBRET target engagement in live cells; assay type: cell-based; conditions: H2030 cells transfected with ULK1-nanoluc, Tracer K10, 2 hr
T1 construct: host or cells: H2030 cells (ATCC)
T1 sequence (O75385 1-1050): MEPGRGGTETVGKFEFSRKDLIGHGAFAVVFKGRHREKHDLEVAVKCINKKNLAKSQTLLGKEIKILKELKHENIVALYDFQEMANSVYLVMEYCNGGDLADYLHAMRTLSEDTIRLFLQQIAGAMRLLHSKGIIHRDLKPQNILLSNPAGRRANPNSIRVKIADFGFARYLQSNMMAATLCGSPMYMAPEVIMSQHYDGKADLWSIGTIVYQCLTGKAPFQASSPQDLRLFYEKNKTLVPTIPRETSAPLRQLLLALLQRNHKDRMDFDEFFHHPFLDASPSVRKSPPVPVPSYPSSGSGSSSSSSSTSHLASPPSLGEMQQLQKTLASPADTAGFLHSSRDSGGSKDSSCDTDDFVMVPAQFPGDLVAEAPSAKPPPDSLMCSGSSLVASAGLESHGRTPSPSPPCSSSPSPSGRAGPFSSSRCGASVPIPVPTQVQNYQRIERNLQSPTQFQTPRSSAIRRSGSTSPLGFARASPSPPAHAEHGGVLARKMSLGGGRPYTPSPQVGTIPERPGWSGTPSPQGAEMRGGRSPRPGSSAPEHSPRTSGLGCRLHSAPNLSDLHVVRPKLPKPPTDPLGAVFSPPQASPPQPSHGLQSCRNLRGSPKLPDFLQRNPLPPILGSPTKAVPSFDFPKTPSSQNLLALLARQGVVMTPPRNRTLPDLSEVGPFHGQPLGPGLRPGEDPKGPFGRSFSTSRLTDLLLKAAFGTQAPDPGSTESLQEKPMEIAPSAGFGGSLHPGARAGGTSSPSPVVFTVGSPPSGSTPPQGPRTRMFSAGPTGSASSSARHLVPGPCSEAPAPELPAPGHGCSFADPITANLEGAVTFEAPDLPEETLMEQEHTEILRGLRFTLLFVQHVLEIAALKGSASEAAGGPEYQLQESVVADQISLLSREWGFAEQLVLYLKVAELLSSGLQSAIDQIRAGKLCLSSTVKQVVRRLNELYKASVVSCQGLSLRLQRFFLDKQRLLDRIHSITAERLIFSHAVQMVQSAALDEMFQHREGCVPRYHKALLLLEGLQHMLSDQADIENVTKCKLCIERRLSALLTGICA

ULK1 kinase = target: T2, ULK1 kinase (Homo sapiens, UniProt O75385); experiment: Radiometric HotSpot kinase assay (Reaction Biology); assay type: biochemical; conditions: activity-based ULK1 kinase assay
T2 construct: purchased Reaction Biology
T2 sequence (O75385 1-1050): T1 sequence (O75385 1-1050)

ULK1 kinase domain = target: T3, ULK1 kinase domain (Homo sapiens, UniProt O75385); experiment: Differential scanning fluorimetry (thermal shift); assay type: binding; conditions: 2 μM ULK1 kinase domain, 50 μM compound, vs DMSO reference
T3 construct: The protein expression construct of ULK1 kinase domain (1-283) was cloned; 6His-Sumo (N, cleaved yes); made in house; host or cells: E. coli BL21 star, co-expressed with lambda phosphatase
T3 sequence (O75385 1-283): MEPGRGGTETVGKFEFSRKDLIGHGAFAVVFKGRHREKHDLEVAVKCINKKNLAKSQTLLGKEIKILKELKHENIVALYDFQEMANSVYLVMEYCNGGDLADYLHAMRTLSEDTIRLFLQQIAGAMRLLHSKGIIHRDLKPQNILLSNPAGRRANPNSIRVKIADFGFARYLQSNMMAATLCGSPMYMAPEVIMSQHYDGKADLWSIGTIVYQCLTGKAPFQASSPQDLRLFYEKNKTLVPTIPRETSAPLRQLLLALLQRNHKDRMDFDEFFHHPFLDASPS

GST-ULK1 = target: T4, GST-ULK1 (Homo sapiens, UniProt O75385); experiment: LanthaScreen ULK1 inhibitor assay; assay type: biochemical; conditions: 5 nM GST-ULK1, 30 nM tracer, 20 μM ATP, 1 hr room temperature
T4 sequence (O75385 1-1050): T1 sequence (O75385 1-1050)

SMILES | EC50 (ULK1-nanoluc) | IC50 (ULK1 kinase) | ΔTm at 50 µM (ULK1 kinase domain) | IC50 (GST-ULK1)
O=C(NCC1(O)CCC1)c1nc(-c2cnc3[nH]c(-c4ccc(F)cc4)cc3c2)cs1 [Compound 70, 4-(2-(4-fluorophenyl)-1H-pyrrolo[2,3-b]pyridin-5-yl)-N-((1-hydroxycyclobutyl)methyl)thiazole-2-carboxamide] | 129 nM | 22 nM | 8.04 °C | 8 nM
CC[C@@H](CO)NC(=O)c1cccc(-c2cnc3[nH]c(-c4ccc(F)cc4)cc3c2)n1 [Compound 59, (S)-6-(2-(4-Fluorophenyl)-1H-pyrrolo[2,3-b]pyridin-5-yl)-N-(1-hydroxybutan-2-yl)-picolinamide] | 149 nM | 7 nM | 11 °C | 10 nM
O=C(NCC1(O)CC1)c1nc(-c2cnc3[nH]c(-c4ccc(F)cc4)cc3c2)cs1 [Compound 73, 4-(2-(4-fluorophenyl)-1H-pyrrolo-[2,3-b]pyridin-5-yl)-N-((1-hydroxy-cyclopropyl)methyl)thiazole-2-carboxamide] | 195 nM | 10 nM | 7.72 °C | 3 nM
O=C(NCC(F)(F)F)c1cc(-c2cnc3[nH]c(-c4ccc(OCCN5CCCCC5)cc4)cc3c2)cs1 [Compound 38, 4-(2-(4-(2-(Piperidin-1-yl)ethoxy)phenyl)-1H-pyrrolo[2,3-b]pyridin-5-yl)-N-(2,2,2-trifluoroethyl)thiophene-2-carboxamide] | 22 nM | 15 nM | 12.8 °C | 14 nM
FC(F)(F)c1cnc2[nH]c(C3=CCOCC3)cc2c1NCCN1CCNCC1 [Compound 87, 2-(3,6-dihydro-2H-pyran-4-yl)-N-(2-(piperazin-1-yl)ethyl)-5-(trifluoromethyl)-1H-pyrrolo[2,3-b]pyridin-4-amine] | 76 nM | 10 nM | 12.5 °C | 16 nM
CN1CC=C(c2cc3c(NCCN4CCNCC4)c(C(F)(F)F)cnc3[nH]2)CC1 [Compound 101, 2-(1-methyl-1,2,3,6-tetrahydropyridin-4-yl)-N-(2-(piperazin-1-yl)ethyl)-5-(trifluoromethyl)-1H-pyrrolo[2,3-b]pyridin-4-amine] | 157 nM | 131 nM | 11 °C | 50 nM
